Reference: PubChem BioAssay AID2060602 (Molecular Pharmacology Branch, DTP, NCI, 2025)
Several values for one entry are separate records, joined by “and”; a condition that tells them apart may be missing. Identical values can stand only once.

Test system: 648629-189-R-J1-PDC complex spheroids viability
Experiment: Anticancer human tumor 648629-189-R-J1-PDC patient-derived bladder carcinoma cell line growth inhibition [CLK]
Settings: for viability, T/C: stronger effect = lower value
Summary of the method: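 Multi-cell-type spheroids combined patient-derived tumor cells with HUVEC endothelial cells and human mesenchymal stem cells. Paired agents were dosed in half-log steps down from about clinical Cmax, or from 10 microM where Cmax was unknown.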
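For viability, T/C in this document: drug exposure lasted seven days before viability readout; 100% = DMSO vehicle control wells.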

COc1c(OCCCN2CCOCC2)ccc2c3n(c(=NC(=O)c4cnc(N)nc4)nc12)CCN3 + CNC(=O)c1ccc(Nc2nc(OC3CCCC3)c3c(-c4ccc5nc(C)oc5c4)c[nH]c3n2)c(OC)c1
IC50 (curve of first compound, second compound 0.0316 µM): 92.8 nM | IC50 (curve of first compound, second compound 0.1 µM): 93 nM | IC50 (curve of first compound, second compound 0.316 µM): < 3.16 nM | IC50 (curve of first compound, second compound 1 µM): < 3.16 nM | IC50 (curve of first compound, second compound 3.16 µM): < 3.16 nM | IC50 (curve of first compound, second compound 10 µM): < 3.16 nM | viability, T/C (second compound 0.0316 µM, first compound 0.00316 µM): 94.5% | viability, T/C (second compound 0.0316 µM, first compound 0.01 µM): 92.6% | viability, T/C (second compound 0.0316 µM, first compound 0.0316 µM): 88.2% | viability, T/C (second compound 0.0316 µM, first compound 0.1 µM): 46.9% | viability, T/C (second compound 0.0316 µM, first compound 0.316 µM): 15.3% | viability, T/C (second compound 0.0316 µM, first compound 1 µM): 8.61% | viability, T/C (second compound 0.1 µM, first compound 0.00316 µM): 101% | viability, T/C (second compound 0.1 µM, first compound 0.01 µM): 105% | viability, T/C (second compound 0.1 µM, first compound 0.0316 µM): 80.6% | viability, T/C (second compound 0.1 µM, first compound 0.1 µM): 49.1% | viability, T/C (second compound 0.1 µM, first compound 0.316 µM): 17.6% | viability, T/C (second compound 0.1 µM, first compound 1 µM): 8.37% | viability, T/C (second compound 0.316 µM, first compound 0.00316 µM): 30.4% | viability, T/C (second compound 0.316 µM, first compound 0.01 µM): 31.4% | viability, T/C (second compound 0.316 µM, first compound 0.0316 µM): 34.1% | viability, T/C (second compound 0.316 µM, first compound 0.1 µM): 31.3% | viability, T/C (second compound 0.316 µM, first compound 0.316 µM): 17.9% | viability, T/C (second compound 0.316 µM, first compound 1 µM): 8.81% | viability, T/C (second compound 1 µM, first compound 0.00316 µM): 19.9% | viability, T/C (second compound 1 µM, first compound 0.01 µM): 19.9% | viability, T/C (second compound 1 µM, first compound 0.0316 µM): 16.1% | viability, T/C (second compound 1 µM, first compound 0.1 µM): 14.5% | viability, T/C (second compound 1 µM, first compound 0.316 µM): 11.1% | viability, T/C (second compound 1 µM, first compound 1 µM): 5.6% | viability, T/C (second compound 3.16 µM, first compound 0.00316 µM): 16.3% | viability, T/C (second compound 3.16 µM, first compound 0.01 µM): 15.8% | viability, T/C (second compound 3.16 µM, first compound 0.0316 µM): 16.1% | viability, T/C (second compound 3.16 µM, first compound 0.1 µM): 11.2% | viability, T/C (second compound 3.16 µM, first compound 0.316 µM): 7.88% | viability, T/C (second compound 3.16 µM, first compound 1 µM): 4.37% | viability, T/C (second compound 10 µM, first compound 0.00316 µM): 19.9% | viability, T/C (second compound 10 µM, first compound 0.01 µM): 18.3% | viability, T/C (second compound 10 µM, first compound 0.0316 µM): 16.9% | viability, T/C (second compound 10 µM, first compound 0.1 µM): 13.4% | viability, T/C (second compound 10 µM, first compound 0.316 µM): 9.26% | viability, T/C (second compound 10 µM, first compound 1 µM): 5.85%

CC(C)CC(NC(=O)C(Cc1ccccc1)NC(=O)c1cnccn1)B(O)O (centres undefined)
viability, T/C (compound 0.000949 µM): 93.5% and 99.9% | viability, T/C (compound 0.003 µM): 73.2% and 41.8% | viability, T/C (compound 0.00949 µM): 1.45% and 1.53% | viability, T/C (compound 0.03 µM): 0.27% and 1.43% | viability, T/C (compound 0.0949 µM): 0.2% and 0.17% | viability, T/C (compound 0.3 µM): 1.64% and 0.18% | IC50 (curve of compound): 4.35 nM and 2.55 nM
